Assay type in all cases: cell-based
One experiment concerns S. typhi. Kind of experiment: microbe, parasite or virus in culture.
Experiment [1] deals with infecting bacteria of urine samples. Kind of experiment: BLT antibiotic susceptibility of urine samples. For antibiotic susceptibility of urine samples: key: R = resistant; S = susceptible. The arrangement: BLT (luminescence): unit not given here. To be noted: for BLT (luminescence): 3 hrs 37 C, concentrations given in Table 5. The method, then: Six fresh urine samples were obtained from a local clinic and examined for bacteriuria (>10^5 cells/mL urine) and the antibiotic susceptibility of the infecting bacteriuria. A tube containing a an antibiotic mixture that would eliminate all infecting bacteria but not effect the lux cells (Ampicillin, Kanamycin, Tetracyclin, and Chloramphenicol) served as a control.
Each urine sample was diluted in Medium 1 to yield a final concentration of 3%. 0.1 mL of the diluted samples were then incubated for 3 hrs. at 37 degrees Celsius in a microtitre plate, with or without an antimicrobial substance at the concentrations given in Table 5).
An equal volume of Medium 2 containing 10 ng/ml autoinducer and supplemented with 10^6 of the lux cells was then added to each well. The microtiter plate was then incubated at 28 degrees/Celsius and the luminescence was measured using a plate reader luminometer.
Luminescence was measured in the absence of antibiotics, in the presence of a mixture of antibiotics and in the presence of a single antibiotic from the mixture.
When the ratio of the luminescence measured in the presence of the single antibiotic to that measured in the presence of the antibiotic mix exceeds a second predetermined constant (e.g. 3) then the infecting bacteria are […] to the antibiotic.

Another experiment concerns S. typhimirium (772). Kind of experiment: overnight disk diffusion test. Particulars: 16 hrs 37 C. The procedure:
(§1) Infecting bacteria (10^6 cells/ml from overnight grown cultures) were spread on LA plates on which 15 mm disks, saturated with various antibiotics, had been placed. After incubating the plates at 37 degrees Celsius for 16 hrs the zone of inhibition was determined for each strain. (Abbreviations used in FIG. 1a and Table 1a: CAP—Chloramphenicol; KAN—Kanamycin; AMP—Ampicillin; CEP—Cephamezin GEN—Gentamycin).

Another experiment has as its system E. coli (W4110). Kind of experiment: overnight disk diffusion test. To be noted: 16 hrs 37 C. The method, then:
as §1

Experiment [2] concerns infecting bacteria of urine samples. The experiment is described as follows: antibiotics disc inhibition zone, urine samples (standard analysis). The method, then: A standard analysis (urine culture colony count) was performed to evaluate bacterial load (Table 5a) and antibiotic susceptibility (Table 5b).

These results are taken from patent US20110097745A1, “Method For Detecting Microbes” (priority 2007, published 2011).

Molecules are shown by their SMILES. Values after ≈ are worked out from the molar mass of the structure shown.

With `NC[C@H]1O[C@H](O[C@H]2[C@H](O)[C@@H](O[C@H]3O[C@H](CO)[C@@H](O)[C@H](N)[C@H]3O)[C@H](N)C[C@@H]2N)[C@H](O)[C@@H](O)[C@@H]1O` [Kanamicin, Kanamycin], the “LU, fold increase over control (no antibiotics added)” value in the experiment with S. typhi (0.117 ppm) was 1.4; in the experiment on S. typhi (0.234 ppm) it was 1.62; in the experiment on S. typhi (0.468 ppm), 1.49; in the experiment on S. typhi (0.937 ppm), 1.82; in the experiment on S. typhi (1.875 ppm), 2.3; in the experiment with S. typhi (3.75 ppm) it was 2.45. The “LU, fold increase over control (no antibiotics added)” value in the experiment with S. typhi (7.5 ppm) was found to be 3.13; with S. typhi (15 ppm) it was 5.79; in the experiment with S. typhi (30 ppm) it was 6.27. Moreover, the MIC with S. typhi (Salmonella enterica, TYPHI, lowest concentration giving two-fold increase of tester luminescence above control) is approximately 1 µg/mL (≈ 2.06 µM). The “antibiotic susceptibility of urine samples” value (“antibiotic susceptibility” for short) in experiment [1] (urine sample 1), in experiment [1] (urine sample 2), in experiment [1] (urine sample 3), in experiment [1] (urine sample 4), in experiment [1] (urine sample 5) and in experiment [1] (urine sample 6) was “S” in each case. Moreover, the “BLT (luminescence)” value in experiment [1] (urine sample 1, 3% urine) was 64; in experiment [1] (urine sample 2, 3% urine), 42; in experiment [1] (urine sample 3, 3% urine), 49; in experiment [1] (urine sample 4, 3% urine) it was 30; in experiment [1] (urine sample 5, 3% urine), 16; in experiment [1] (urine sample 6, 3% urine), 38. Also, the zone of inhibition worked out at 20 mm with S. typhimirium (772) (disk 30 ppm) and 25 mm with E. coli (W4110) (disk 30 ppm). The “Antibiotics disc inhibition zone” value came to 5 mm in experiment [2] (urine sample 1, 30 ppm); 5 mm in experiment [2] (urine sample 2, 30 ppm); 5 mm in experiment [2] (urine sample 3, 30 ppm); 2 mm in experiment [2] (urine sample 4, 30 ppm); 1 mm in experiment [2] (urine sample 6, 30 ppm).
In the case of `CC1(C)S[C@@H]2[C@H](NC(=O)Cc3ccccc3)C(=O)N2[C@H]1C(=O)O` [Penicillin G], the “antibiotic susceptibility” value is given as “R” in experiment [1] (urine sample 1); “R” in experiment [1] (urine sample 2); “S” in experiment [1] (urine sample 3); “S” in experiment [1] (urine sample 4); “R” in experiment [1] (urine sample 5); “S” in experiment [1] (urine sample 6). For the same molecule, the “BLT (luminescence)” value worked out at 0.5 in experiment [1] (urine sample 1, 3% urine); 0.93 in experiment [1] (urine sample 2, 3% urine); 4 in experiment [1] (urine sample 3, 3% urine); 30 in experiment [1] (urine sample 4, 3% urine); 0.417 in experiment [1] (urine sample 5, 3% urine); 11 in experiment [1] (urine sample 6, 3% urine). Besides, the “Antibiotics disc inhibition zone” value in experiment [2] (urine sample 1, 40 ppm) was 0 mm; in experiment [2] (urine sample 2, 40 ppm), 0 mm; in experiment [2] (urine sample 3, 40 ppm), 3 mm; in experiment [2] (urine sample 4, 40 ppm) it was 7 mm; in experiment [2] (urine sample 6, 40 ppm), 2 mm.
With `CC1(C)S[C@@H]2[C@H](NC(=O)[C@H](N)c3ccccc3)C(=O)N2[C@H]1C(=O)O` [Ampicillin], the “antibiotic susceptibility” value in experiment [1] (urine sample 1) was “R”; in experiment [1] (urine sample 2), “R”; in experiment [1] (urine sample 3), “S”; in experiment [1] (urine sample 4), “S”; in experiment [1] (urine sample 5), “R”; in experiment [1] (urine sample 6), “S”. Besides, the “BLT (luminescence)” value in experiment [1] (urine sample 1, 3% urine) is 1; in experiment [1] (urine sample 2, 3% urine), 0.144; in experiment [1] (urine sample 3, 3% urine), 5.11; in experiment [1] (urine sample 4, 3% urine), 30; in experiment [1] (urine sample 5, 3% urine), 0.42; in experiment [1] (urine sample 6, 3% urine), 18. Besides, the zone of inhibition was 30 mm in the experiment with S. typhimirium (772) (disk 40 ppm) and 40 mm with E. coli (W4110) (disk 40 ppm). Moreover, the “Antibiotics disc inhibition zone” value in experiment [2] (urine sample 1, 40 ppm) came to 0 mm; in experiment [2] (urine sample 2, 40 ppm), 0 mm; in experiment [2] (urine sample 3, 40 ppm), 5 mm; in experiment [2] (urine sample 4, 40 ppm) it was 7 mm; in experiment [2] (urine sample 6, 40 ppm), 5 mm.
For `Cc1nnc(SCC2=C(C(=O)O)N3C(=O)[C@@H](NC(=O)Cn4cnnn4)[C@H]3SC2)s1` [Cephamezin], the “antibiotic susceptibility” value in experiment [1] (urine sample 1), in experiment [1] (urine sample 2), in experiment [1] (urine sample 3), in experiment [1] (urine sample 4), in experiment [1] (urine sample 5) and in experiment [1] (urine sample 6) was “S” in each case. Besides, the “BLT (luminescence)” value in experiment [1] (urine sample 1, 3% urine) is 61; in experiment [1] (urine sample 2, 3% urine) it was 2.3; in experiment [1] (urine sample 3, 3% urine) it was 21.8; in experiment [1] (urine sample 4, 3% urine), 30; in experiment [1] (urine sample 5, 3% urine) it was 16; in experiment [1] (urine sample 6, 3% urine) it was 36.8. Also, the values for the zone of inhibition in the experiment with S. typhimirium (772) (disk 30 ppm) and in the experiment with E. coli (W4110) (disk 30 ppm) were 40 mm and 30 mm, respectively. Moreover, the “Antibiotics disc inhibition zone” value in experiment [2] (urine sample 1, 30 ppm) is 7 mm; in experiment [2] (urine sample 2, 30 ppm) it was 5 mm; in experiment [2] (urine sample 3, 30 ppm), 7 mm; in experiment [2] (urine sample 4, 30 ppm), 5 mm; in experiment [2] (urine sample 6, 30 ppm), 6 mm.
Consider `Cc1onc(-c2ccccc2Cl)c1C(=O)N[C@@H]1C(=O)N2[C@@H]1SC(C)(C)[C@@H]2C(=O)[O-].[Na+]` [Orbenil], for which the “antibiotic susceptibility” value is “R” in experiment [1] (urine sample 1); “R” in experiment [1] (urine sample 2); “R” in experiment [1] (urine sample 3); “S” in experiment [1] (urine sample 4); “R” in experiment [1] (urine sample 5); “R” in experiment [1] (urine sample 6). Moreover, the “BLT (luminescence)” value in experiment [1] (urine sample 1, 3% urine) was determined as 0.8; in experiment [1] (urine sample 2, 3% urine), 0.087; in experiment [1] (urine sample 3, 3% urine) it was 0.76; in experiment [1] (urine sample 4, 3% urine), 30; in experiment [1] (urine sample 5, 3% urine) it was 0.63; in experiment [1] (urine sample 6, 3% urine), 0.18. The “Antibiotics disc inhibition zone” value in experiment [2] (urine sample 1, 10 ppm) was 0 mm; in experiment [2] (urine sample 2, 10 ppm), 0 mm; in experiment [2] (urine sample 3, 10 ppm), 0 mm; in experiment [2] (urine sample 4, 10 ppm), 6 mm; in experiment [2] (urine sample 6, 10 ppm), 0 mm.
For the molecule `CO/N=C(\C(=O)N[C@@H]1C(=O)N2C(C(=O)O)=C(COC(N)=O)CS[C@H]12)c1ccco1` [Cefuroxime], the “antibiotic susceptibility” value in experiment [1] (urine sample 1), in experiment [1] (urine sample 2), in experiment [1] (urine sample 3), in experiment [1] (urine sample 4), in experiment [1] (urine sample 5) and in experiment [1] (urine sample 6) was “S” throughout. Also, the “BLT (luminescence)” value came to 55 in experiment [1] (urine sample 1, 3% urine); 1.36 in experiment [1] (urine sample 2, 3% urine); 2.4 in experiment [1] (urine sample 3, 3% urine); 31 in experiment [1] (urine sample 4, 3% urine); 8.6 in experiment [1] (urine sample 5, 3% urine); 0.76 in experiment [1] (urine sample 6, 3% urine). In addition, the “Antibiotics disc inhibition zone” value in experiment [2] (urine sample 1, 30 ppm) stood at 6 mm; in experiment [2] (urine sample 2, 30 ppm), 7 mm; in experiment [2] (urine sample 3, 30 ppm), 5 mm; in experiment [2] (urine sample 4, 30 ppm) it was 5 mm; in experiment [2] (urine sample 6, 30 ppm), 4 mm.
